The values that follow are results of earlier work, collected in patent EP0668291A2, “Mammalian augmenter of liver regenerating and variants thereof” (Toyo Boseki Kabushiki Kaisha, priority 1994, dated 1995).

The structures appear in SMILES notation.

This data set has as its system hepatocytes. The conditions noted are these: earlier work.

As for `N[C@@H](Cc1cc(I)c(Oc2ccc(O)c(I)c2)c(I)c1)C(=O)O` [thyroxin T3, tri-iodothyronine], the hepatotrophic effect result is “weakly hepatotrophic”.
